Test [1] has as its target XIAP-BIR3 (Homo sapiens, UniProt P98170). Put plainly: Biacore SPR solution competition binding assay vs smac7 mer peptide, XIAP-BIR3. To be noted: citrate salt form tested; 100 nM XIAP-BIR3; 25° C.; read-out: XIAP-BIR3 Binding Biacore (Competitive) EC50. From the text: (§1) The compounds described herein above were profiled using a cellular assay (using SKOV3 or Panc3.27 tumor cells) and a binding assay to determine the competition between the compounds of the present invention and smac7 mer peptide for XIAP-BIR3 and cIAP1-BIR3 binding groove occupancy.
(§2) The present method includes utility of a Surface plasmon resonance (SPR)-based biosensor (Biacore™ GE Healthcare, Uppsala, Sweden) to examine competition between the compounds of the present invention and smac7 mer peptide for XIAP-BIR3 and cIAP1-BIR3 binding groove occupancy.
(§3) Biacore™ utilizes the phenomenon of surface plasmon resonance (SPR) to detect and measure binding interactions. In a typical Biacore experiment, one of the interacting molecules is immobilized on a flexible dextran matrix while the interacting partner is flowed over the derivatized surface. A binding interaction results in an increase in mass on the sensor surface and a corresponding direct change in the refractive index of the medium in the vicinity of the sensor surface. Changes in refractive index or signal are recorded in resonance units (R.U.) Signal changes due to association and dissociation of complexes are monitored in a non-invasive manner, continuously and in real-time, the results of which are reported in the form of a sensorgram.
(§4) Biacore™ T100 (GE Healthcare, Uppsala, Sweden) was used to conduct all experiments reported herein. Sensor surface preparation and interaction analyses were performed at 25° C. Buffer and Biacore reagents were purchased from GE Healthcare. Running buffer containing 10 mM Hepes, pH7.4, 150 mM sodium chloride, 1.25 mM Dithiothreitol, 2% Dimethyl sulfoxide and 0.05% polysorbate 20 was utilized throughout all experiments.
(§5) Biotinylated smac7 mer peptide was diluted to 10 nM in running buffer and captured onto a sensor surface pre-derivatized with streptavidin (sensor chip SA) towards peptide surface densities in the range 40-100 R.U. Peptide captured surfaces were blocked with 500 μM PEO2-Biotin (Thermo Scientific).
(§6) Interaction analyses were performed by first equilibrating each compound within a six point seven fold compound dilution series in the range 1 μM to 0.06 nM with either 100 nM XIAP-BIR3 or 6 nM cIAP1-BIR3 for at least one hour during instrument start-up procedures. Protein compound mixtures were then injected over reference and smac7 mer peptide surfaces in series for 60 seconds at a flow-rate of 64 μL/minutes. Surface regeneration was performed at the end of each analysis cycle by a 30 second injection of 10 mM Glycine, pH 2.5, 1M Sodium Chloride, 0.05% polysorbate 20. Additionally, control compound samples and control XIAP-BIR3 or cIAP1-BIR3 samples were prepared and run at regular intervals to monitor surface and assay performance.
(§7) Data analyses were carried out using Biacore™ T100 evaluation software v2.0 to validate assay quality. Binding level report points were plotted versus logarithmic compound concentration values and analyzed in Graphpad prism 5 via non-linear regression using a one-site competition model. EC50 values were generated and used as a measure of inhibitor potency.
(SPR reads the build-up and loss of mass on a sensor chip optically.)

The target of test [2] is cIAP1-BIR3 (Homo sapiens, UniProt Q13490). Kind of test: Biacore SPR solution competition binding assay vs smac7 mer peptide, cIAP1-BIR3. The note with it: citrate salt form tested; 6 nM cIAP1-BIR3; 25° C.; read-out: CIAP-BIR3 Binding Biacore (Competitive) EC50.
Source text: as §1, §2, §3, §4, §5, §6, §7

Test [3] relates to SKOV3 tumor cells. Put plainly: Cellular assay, SKOV3 tumor cell proliferation (Cell Titer Glo). It counts as cell-based. The note with it: Homo sapiens, SK-OV-3, citrate salt form tested, 72 hour growth. Here is the method: as §1
(§8) On day one adherent SKOV3 and Panc3.27 cells are plated into two 96-well, clear, flat bottom plates. All wells in row A contain 90 uL of media. All wells in rows B-G contain a total volume of 90 uL per well and 2000 cells per well for SKOV3 and 4000 cells per well for Panc3.27 cell lines. Plates are then incubated overnight for 18 hours at 37° C., 5% CO2.
(§9) On day two cells are treated with the compounds of formula M-L-M′. Treatments are done in triplicate. The compounds are first serially diluted in DMSO and then added to media giving a final concentration of 0.2% DMSO when added to cells. Cells are treated with 10 uL of serially diluted compounds of formula M-L-M′ at a final concentration of 1000 nM, 200 nM, 40 nM, 8 nM, 1.6 nM, 0.32 nM, 0.06 nM, 0.013 nM, 0.0026 nM, and one untreated well. Plate two is used as a time zero plate.
(§10) To measure cell viability 50 uL of Cell Titer Glo (CTG) solution is added to row A, media only and B, cells and media. CTG is purchased from Promega Corporation catalog number G7573. The solution is prepared according to manufacturer's instructions. CTG measures the amount of ATP released from viable cells that is proportional to the number of cells in each well. After incubating for ten minutes with CTG plates are measured on a luminescent reader at 700 nm wavelength. Read time is approximately one second per well for a 96-well plate.
(§11) On day five 50 uL of CTG is added to plate one, rows A-G, incubated for 10 minutes at room temperature and read on a luminescent reader. Raw data is adjusted to account for the time zero plate as well as background noise. Triplicate values are averaged and percent control growth is calculated. Percent control growth is calculated using the following logical test: If well read data point (a) is greater than time zero data point (t=0), then 100*[(a)−(t=0)]/[(72 hour total growth)−(t=0)], OR 100*[(a)−(t=0)]/[(t=0)]. Data is represented by line graph with the concentration of compound on the x axis and percent control growth on the y axis.

Test [4] deals with Panc3.27 tumor cells. Kind of test: Cellular assay, Panc3.27 tumor cell proliferation (Cell Titer Glo). It counts as cell-based. To be noted: citrate salt form tested, Panc3.27 cells, 72 hour growth, read-out: PANC proliferation IC50. Here is the method:
as §1, §8, §9, §10, §11

Structures are written as SMILES. Bounds are passed on as bounds.

Chain of cIAP1-BIR3 (Q13490 260-352 limits assumed): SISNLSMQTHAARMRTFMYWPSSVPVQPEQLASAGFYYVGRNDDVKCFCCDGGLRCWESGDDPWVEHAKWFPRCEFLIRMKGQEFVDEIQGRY
Chain of XIAP-BIR3 (P98170 241-356 limits assumed): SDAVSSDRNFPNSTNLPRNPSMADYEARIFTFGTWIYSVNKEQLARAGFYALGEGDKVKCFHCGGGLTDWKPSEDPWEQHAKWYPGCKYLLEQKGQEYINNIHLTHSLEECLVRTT

As to `CN[C@@H](C)C(=O)N[C@@H](CCCCNC(=O)c1cccc(C(=O)NCCCC[C@H](NC(=O)[C@H](C)NC)C(=O)N2CCC[C@H]2c2cncc(C(=O)c3ccc(F)cc3)c2)c1)C(=O)N1CCC[C@H]1c1cncc(C(=O)c2ccc(F)cc2)c1` [Example 1E, N,N′-Bis-[(S)-6-{(S)-2-[5-(4-fluoro-benzoyl)-pyridin-3-yl]-pyrrolidin-1-y}-5-((S)-2-methylamino-propionylamino)-6-oxo-hexyl]-isophthalamide], the EC50 in test [1] is 139 to 158 nM; in test [2] it was 0.47 to 0.52 nM. Besides, the values for the IC50 in test [3] and in test [4] were 26.7 to 79.4 nM and 26.8 to 185 nM, respectively.

As for `CN[C@@H](C)C(=O)N[C@@H](Cc1ccc(NC(=O)CCCCC(=O)Nc2ccc(C[C@H](NC(=O)[C@H](C)NC)C(=O)N3CCC[C@H]3c3cncc(C(=O)c4ccc(F)cc4)c3)cc2)cc1)C(=O)N1CCC[C@H]1c1cncc(C(=O)c2ccc(F)cc2)c1` [Example 2C, Hexanedioic acid bis-({4-[(S)-3-{(S)-2-[5-(4-fluoro-benzoyl)-pyridin-3-yl]-pyrrolidin-1-yl}-2-((S)-2-methylamino-propionylamino)-3-oxo-propyl]-phenyl}-amide)], the EC50 in test [1] lay in the range of 125 to 138 nM; in test [2] it was 0.58 to 0.6 nM. Further, the values for the IC50 in test [3] and in test [4] were 59.7 to 317 nM and 144 to 391 nM, respectively.

For the compound `CN[C@@H](C)C(=O)N[C@@H](CCCCNC(=O)CCCCCC(=O)NCCCC[C@H](NC(=O)[C@H](C)NC)C(=O)N1CCC[C@H]1c1cncc(C(=O)c2ccc(F)cc2)c1)C(=O)N1CCC[C@H]1c1cncc(C(=O)c2ccc(F)cc2)c1` [Example 1A, Heptanedioic acid bis-{[(S)-6-{(S)-2-[5-(4-fluoro-benzoyl)-pyridin-3-yl]-pyrrolidin-1-yl}-5-((S)-2-methylamino-propionylamino)-6-oxo-hexyl]-amide}], the EC50 in test [1] lay in the range of 126 to 131 nM; in test [2], 0.68 to 0.7 nM. The IC50 in test [3] is 41 to 77.1 nM; in test [4], 72.4 to 427 nM.

Consider `CN[C@@H](C)C(=O)N[C@@H](Cc1ccc(NC(=O)CCCCCC(=O)Nc2ccc(C[C@H](NC(=O)[C@H](C)NC)C(=O)N3CCC[C@H]3c3cncc(C(=O)c4ccc(F)cc4)c3)cc2)cc1)C(=O)N1CCC[C@H]1c1cncc(C(=O)c2ccc(F)cc2)c1` [Example 2A, Heptanedioic acid bis-({4-[(S)-3-{(S)-2-[5-(4-fluoro-benzoyl)-pyridin-3-yl]-pyrrolidin-1-yl}-2-((S)-2-methylamino-propionylamino)-3-oxo-propyl]-phenyl}-amide)], for which the EC50 in test [1] is 146 to 154 nM; in test [2] it was 0.73 to 0.74 nM. Besides, the IC50 in test [3] lay within 23.5 to 25.8 nM.

In the case of `CN[C@@H](C)C(=O)N[C@@H](CCCCNC(=O)CCCCCCCC(=O)NCCCC[C@H](NC(=O)[C@H](C)NC)C(=O)N1CCC[C@H]1c1cncc(C(=O)c2ccc(F)cc2)c1)C(=O)N1CCC[C@H]1c1cncc(C(=O)c2ccc(F)cc2)c1` [Example 1F, Nonanedioic acid bis-{[(S)-6-{(S)-2-[5-(4-fluoro-benzoyl)-pyridin-3-yl]-pyrrolidin-1-yl}-5-((S)-2-methylamino-propionylamino)-6-oxo-hexyl]-amide}], the EC50 was in the range of 129 to 145 nM in test [1] and 0.68 to 0.69 nM in test [2]. Also, the IC50 in test [3] fell in the range of 16.1 to 20.1 nM; in test [4], 12.8 to 106 nM.

`CN[C@@H](C)C(=O)N[C@@H](CCCCNC(=O)c1ccc(C(=O)NCCCC[C@H](NC(=O)[C@H](C)NC)C(=O)N2CCC[C@H]2c2cncc(C(=O)c3ccc(F)cc3)c2)cc1)C(=O)N1CCC[C@H]1c1cncc(C(=O)c2ccc(F)cc2)c1` [Example 1C, N,N′-Bis-[(S)-6-{(S)-2-[5-(4-fluorobenzoyl)-pyridin-3-yl]-pyrrolidin-1-yl}-5-((S)-2-methylamino-propionylamino)-6-oxo-hexyl]-terephthalamide]: the EC50 was 413 to 425 nM in test [1] and 4.75 to 4.89 nM in test [2]. In addition, the IC50 was in the range of 84 to 127 nM in test [3] and 63.3 to 147 nM in test [4].

For the compound `CN[C@@H](C)C(=O)N[C@@H](Cc1ccc(NC(=O)c2cccc(C(=O)Nc3ccc(C[C@H](NC(=O)[C@H](C)NC)C(=O)N4CCC[C@H]4c4cncc(C(=O)c5ccc(F)cc5)c4)cc3)c2)cc1)C(=O)N1CCCC1c1cncc(C(=O)c2ccc(F)cc2)c1` (stereo partly drawn) [Example 2D, N,N′-Bis-{4-[(S)-3-{(S)-2-[5-(4-fluoro-benzoyl)-pyridin-3-yl]-pyrrolidin-1-yl}-2-((S)-2-methylamino-propionylamino)-3-oxo-propyl]-pheny}-isophthalamide], the concentration giving a half-maximal response (EC50) lay in the range of 228 to 238 nM in test [1] and 0.66 to 0.68 nM in test [2]. Moreover, the IC50 in test [3] lay in the range of 107 to 291 nM; in test [4] it was 167 to 694 nM.

On to `CN[C@@H](C)C(=O)N[C@@H](CCCCNC(=O)CCCCCCCCC(=O)NCCCC[C@H](NC(=O)[C@H](C)NC)C(=O)N1CCC[C@H]1c1cncc(C(=O)c2ccc(F)cc2)c1)C(=O)N1CCC[C@H]1c1cncc(C(=O)c2ccc(F)cc2)c1` [Example 1G, Decanedioic acid bis-{[(S)-6-{(S)-2-[5-(4-fluoro-benozyl)-pyridin-3-yl]-pyrrolidin-1-yl}-5-((S)-2-methylamino-propionylamino)-6-oxo-hexyl]-amide}], for which the EC50 was 97.2 to 108 nM in test [1] and 0.71 nM in test [2]. Moreover, the IC50 was 9.64 to 16.4 nM in test [3] and 5.22 to 27.9 nM in test [4].

For the compound `CN[C@@H](C)C(=O)N[C@@H](Cc1ccc(NC(=O)CCCCCCCC(=O)Nc2ccc(C[C@H](NC(=O)[C@H](C)NC)C(=O)N3CCC[C@H]3c3cncc(C(=O)c4ccc(F)cc4)c3)cc2)cc1)C(=O)N1CCC[C@H]1c1cncc(C(=O)c2ccc(F)cc2)c1` [Example 2E, Nonanedioic acid bis-({4-[(S)-3-{(S)-2-[5-(4-fluoro-benzoyl)-pyridin-3-yl]-pyrrolidin-1-yl}-2-((S)-2-methylamino-propionylamino)-3-oxo-propyl]-phenyl}-amide)], the EC50 in test [1] was in the range of 99.4 to 104 nM; in test [2], 0.73 to 0.81 nM. The IC50 fell in the range of 17.1 to 23.5 nM in test [3] and 37.6 to 95.7 nM in test [4].

For `CN[C@@H](C)C(=O)N[C@@H](Cc1ccc(NC(=O)CCCC(=O)Nc2ccc(C[C@H](NC(=O)[C@H](C)NC)C(=O)N3CCC[C@H]3c3cncc(C(=O)c4ccc(F)cc4)c3)cc2)cc1)C(=O)N1CCC[C@H]1c1cncc(C(=O)c2ccc(F)cc2)c1` [Example 2F, Pentanedioic acid bis-({4-[(S)-3-{(S)-2-[5-(4-fluoro-benzoyl)-pyridin-3-yl]-pyrrolidin-1-yl}-2-((S)-2-methylamino-propionylamino)-3-oxo-propyl]-phenyl}-amide)], the 50% effective concentration (EC50) in test [1] was 123 to 126 nM; in test [2], 0.7 nM. For the same compound, the IC50 in test [3] is at least 967 nM; in test [4] it was 88.3 to 393 nM.

Broadly, the EC50 is the concentration that produces a half-maximal response.

Source of the values: patent publication US8445440B2, “Dimeric IAP inhibitors” (Novartis AG, priority 2010, dated 2013).
